In ChEMBL document CHEMBL1671627, “Increasing trends in antimicrobial resistance among clinically important anaerobes and Bacteroides fragilis isolates causing nosocomial infections: emerging resistance to carbapenems” (2008):
In brackets after ≈: the same amount, converted by molar mass.

How the values were obtained:
[1] = tested on: Peptoniphilus asaccharolyticus; assay: Antibacterial activity against beta-lactamase producing Peptoniphilus asaccharolyticus by CLSI agar dilution method; assay type: functional
[2] = tested on: Prevotella melaninogenica; assay: Antibacterial activity against Prevotella melaninogenica assessed as susceptible isolates by CLSI agar dilution method; assay type: functional
Prevotella bivia [3] = assay: Antibacterial activity against Prevotella bivia by CLSI agar dilution method; assay type: functional
Fusobacterium nucleatum [4] = assay: Antibacterial activity against Fusobacterium nucleatum assessed as susceptible isolates by CLSI agar dilution method; assay type: functional
Bacteroides uniformis [5] = assay: Antibacterial activity against beta-lactamase producing Bacteroides uniformis assessed as susceptible isolates by CLSI agar dilution method; assay type: functional
Finegoldia magna [6] = assay: Antibacterial activity against beta-lactamase producing Finegoldia magna by CLSI agar dilution method; assay type: functional
Prevotella intermedia [7] = assay: Antibacterial activity against Prevotella intermedia assessed as resistant isolates by CLSI agar dilution method; assay type: functional
Bacteroides fragilis [8] = assay: Antibacterial activity against Bacteroides fragilis assessed as resistant isolates by CLSI agar dilution method; assay type: functional
Phocaeicola vulgatus [9] = assay: Antibacterial activity against beta-lactamase producing Bacteroides vulgatus assessed as susceptible isolates by CLSI agar dilution method; assay type: functional
Bacteroides fragilis [10] = assay: Antibacterial activity against Bacteroides fragilis assessed as susceptible isolates by CLSI agar dilution method; assay type: functional
[11] = tested on: Clostridium paraputrificum; assay: Antibacterial activity against beta-lactamase producing Clostridium paraputrificum assessed as resistant isolates by CLSI agar dilution method; assay type: functional
Parvimonas micra [12] = assay: Antibacterial activity against beta-lactamase producing Micromonas micros assessed as resistant isolates by CLSI agar dilution method; assay type: functional
Parvimonas micra [13] = assay: Antibacterial activity against beta-lactamase producing Micromonas micros by CLSI agar dilution method; assay type: functional
Veillonella parvula = assay: Antibacterial activity against Veillonella parvula by CLSI agar dilution method; assay type: functional
Prevotella intermedia [14] = assay: Antibacterial activity against Prevotella intermedia assessed as susceptible isolates by CLSI agar dilution method; assay type: functional
[15] = tested on: Clostridium paraputrificum; assay: Antibacterial activity against beta-lactamase producing Clostridium paraputrificum by CLSI agar dilution method; assay type: functional
[16] = tested on: Fusobacterium necrophorum; assay: Antibacterial activity against Fusobacterium necrophorum assessed as susceptible isolates by CLSI agar dilution method; assay type: functional
Fusobacterium varium [17] = assay: Antibacterial activity against Fusobacterium varium assessed as susceptible isolates by CLSI agar dilution method; assay type: functional
Prevotella buccae [18] = assay: Antibacterial activity against Prevotella buccae assessed as resistant isolates by CLSI agar dilution method; assay type: functional, Segatella buccae
Bacteroides uniformis [19] = assay: Antibacterial activity against beta-lactamase producing Bacteroides uniformis assessed as resistant isolates by CLSI agar dilution method; assay type: functional
Fusobacterium varium [20] = assay: Antibacterial activity against Fusobacterium varium assessed as resistant isolates by CLSI agar dilution method; assay type: functional
[21] = tested on: Peptostreptococcus anaerobius; assay: Antibacterial activity against beta-lactamase producing Peptostreptococcus anaerobius assessed as resistant isolates by CLSI agar dilution method; assay type: functional
Phocaeicola vulgatus [22] = assay: Antibacterial activity against beta-lactamase producing Bacteroides vulgatus by CLSI agar dilution method; assay type: functional
Prevotella intermedia [23] = assay: Antibacterial activity against Prevotella intermedia by CLSI agar dilution method; assay type: functional
Bacteroides caccae [24] = assay: Antibacterial activity against beta-lactamase producing Bacteroides caccae assessed as susceptible isolates by CLSI agar dilution method; assay type: functional
[25] = tested on: Bacteroides thetaiotaomicron; assay: Antibacterial activity against beta-lactamase producing Bacteroides thetaiotaomicron assessed as susceptible isolates by CLSI agar dilution method; assay type: functional
Prevotella buccae [26] = assay: Antibacterial activity against Prevotella buccae by CLSI agar dilution method; assay type: functional; conditions: Segatella buccae
Prevotella bivia [27] = assay: Antibacterial activity against Prevotella bivia assessed as resistant isolates by CLSI agar dilution method; assay type: functional
Prevotella bivia [28] = assay: Antibacterial activity against Prevotella bivia assessed as susceptible isolates by CLSI agar dilution method; assay type: functional
Phocaeicola vulgatus [29] = assay: Antibacterial activity against beta-lactamase producing Bacteroides vulgatus assessed as resistant isolates by CLSI agar dilution method; assay type: functional
Bacteroides uniformis [30] = assay: Antibacterial activity against beta-lactamase producing Bacteroides uniformis by CLSI agar dilution method; assay type: functional
Clostridium tertium [31] = assay: Antibacterial activity against beta-lactamase producing Clostridium tertium by CLSI agar dilution method; assay type: functional
Clostridium tertium [32] = assay: Antibacterial activity against beta-lactamase producing Clostridium tertium assessed as resistant isolates by CLSI agar dilution method; assay type: functional
[33] = tested on: Prevotella melaninogenica; assay: Antibacterial activity against Prevotella melaninogenica assessed as resistant isolates by CLSI agar dilution method; assay type: functional
Clostridium septicum [34] = assay: Antibacterial activity against beta-lactamase producing Clostridium septicum assessed as susceptible isolates by CLSI agar dilution method; assay type: functional
[35] = tested on: Bacteroides thetaiotaomicron; assay: Antibacterial activity against beta-lactamase producing Bacteroides thetaiotaomicron by CLSI agar dilution method; assay type: functional
Bacteroides caccae [36] = assay: Antibacterial activity against beta-lactamase producing Bacteroides caccae by CLSI agar dilution method; assay type: functional
[37] = tested on: Fusobacterium necrophorum; assay: Antibacterial activity against Fusobacterium necrophorum assessed as resistant isolates by CLSI agar dilution method; assay type: functional
[38] = tested on: Peptoniphilus asaccharolyticus; assay: Antibacterial activity against beta-lactamase producing Peptoniphilus asaccharolyticus assessed as susceptible isolates by CLSI agar dilution method; assay type: functional
Fusobacterium varium [39] = assay: Antibacterial activity against Fusobacterium varium by CLSI agar dilution method; assay type: functional
Clostridium septicum [40] = assay: Antibacterial activity against beta-lactamase producing Clostridium septicum assessed as resistant isolates by CLSI agar dilution method; assay type: functional
Prevotella buccae [41] = assay: Antibacterial activity against Prevotella buccae assessed as susceptible isolates by CLSI agar dilution method; assay type: functional, Segatella buccae
Finegoldia magna [42] = assay: Antibacterial activity against beta-lactamase producing Finegoldia magna assessed as resistant isolates by CLSI agar dilution method; assay type: functional
Bacteroides caccae [43] = assay: Antibacterial activity against beta-lactamase producing Bacteroides caccae assessed as resistant isolates by CLSI agar dilution method; assay type: functional
Parvimonas micra [44] = assay: Antibacterial activity against beta-lactamase producing Micromonas micros assessed as susceptible isolates by CLSI agar dilution method; assay type: functional
[45] = tested on: Peptoniphilus asaccharolyticus; assay: Antibacterial activity against beta-lactamase producing Peptoniphilus asaccharolyticus assessed as resistant isolates by CLSI agar dilution method; assay type: functional
Clostridium perfringens = assay: microbe, parasite or virus in culture; assay type: functional
Fusobacterium nucleatum [46] = assay: Antibacterial activity against Fusobacterium nucleatum assessed as resistant isolates by CLSI agar dilution method; assay type: functional
Clostridium septicum [47] = assay: Antibacterial activity against beta-lactamase producing Clostridium septicum by CLSI agar dilution method; assay type: functional
Fusobacterium mortiferum [48] = assay: Antibacterial activity against Fusobacterium mortiferum assessed as susceptible isolates by CLSI agar dilution method; assay type: functional
[49] = tested on: Clostridium paraputrificum; assay: Antibacterial activity against beta-lactamase producing Clostridium paraputrificum assessed as susceptible isolates by CLSI agar dilution method; assay type: functional
Fusobacterium nucleatum [50] = assay: Antibacterial activity against Fusobacterium nucleatum by CLSI agar dilution method; assay type: functional
Bacteroides fragilis [51] = assay: Antibacterial activity against Bacteroides fragilis by CLSI agar dilution method; assay type: functional
Clostridium tertium [52] = assay: Antibacterial activity against beta-lactamase producing Clostridium tertium assessed as susceptible isolates by CLSI agar dilution method; assay type: functional
Finegoldia magna [53] = assay: Antibacterial activity against beta-lactamase producing Finegoldia magna assessed as susceptible isolates by CLSI agar dilution method; assay type: functional
Fusobacterium mortiferum [54] = assay: Antibacterial activity against Fusobacterium mortiferum by CLSI agar dilution method; assay type: functional
[55] = tested on: Fusobacterium necrophorum; assay: Antibacterial activity against Fusobacterium necrophorum by CLSI agar dilution method; assay type: functional
[56] = tested on: Bacteroides thetaiotaomicron; assay: Antibacterial activity against beta-lactamase producing Bacteroides thetaiotaomicron assessed as resistant isolates by CLSI agar dilution method; assay type: functional
[57] = tested on: Prevotella melaninogenica; assay: Antibacterial activity against Prevotella melaninogenica by CLSI agar dilution method; assay type: functional
[58] = tested on: Peptostreptococcus anaerobius; assay: Antibacterial activity against beta-lactamase producing Peptostreptococcus anaerobius assessed as susceptible isolates by CLSI agar dilution method; assay type: functional
Fusobacterium mortiferum [59] = assay: Antibacterial activity against Fusobacterium mortiferum assessed as resistant isolates by CLSI agar dilution method; assay type: functional
[60] = tested on: Peptostreptococcus anaerobius; assay: Antibacterial activity against beta-lactamase producing Peptostreptococcus anaerobius by CLSI agar dilution method; assay type: functional

## O=C(N[C@H](CO)[C@H](O)c1ccc([N+](=O)[O-])cc1)C(Cl)Cl [CHLORAMPHENICOL]
[1]
  MIC: 1 µg/mL (≈ 3.09 µM)
  MIC50: 1 µg/mL (≈ 3.09 µM)
  MIC90: 4 µg/mL (≈ 12.4 µM)
[2]
  Activity: 100%
Prevotella bivia [3]
  MIC50: 4 µg/mL (≈ 12.4 µM)
  MIC90: 8 µg/mL (≈ 24.8 µM)
Fusobacterium nucleatum [4]
  Activity: 96%
Bacteroides uniformis [5]
  Activity: 96%
Finegoldia magna [6]
  MIC: 1 µg/mL (≈ 3.09 µM)
  MIC50: 1 µg/mL (≈ 3.09 µM)
  MIC90: 4 µg/mL (≈ 12.4 µM)
Prevotella intermedia [7]
  Activity: 0%
Bacteroides fragilis [8]
  Activity: 3%
Phocaeicola vulgatus [9]
  Activity: 96%
Bacteroides fragilis [10]
  Activity: 97%
[11]
  Activity: 0%
Parvimonas micra [12]
  Activity: 6%
Parvimonas micra [13]
  MIC: 1 µg/mL (≈ 3.09 µM)
  MIC50: 1 µg/mL (≈ 3.09 µM)
  MIC90: 4 µg/mL (≈ 12.4 µM)
Veillonella parvula
  MIC: 1 µg/mL (≈ 3.09 µM)
Prevotella intermedia [14]
  Activity: 100%
[15]
  MIC50: 4 µg/mL (≈ 12.4 µM)
  MIC90: 8 µg/mL (≈ 24.8 µM)
[16]
  Activity: 96%
Fusobacterium varium [17]
  Activity: 96%
Prevotella buccae [18]
  Activity: 0%
Bacteroides uniformis [19]
  Activity: 4%
Fusobacterium varium [20]
  Activity: 4%
[21]
  Activity: 6%
Phocaeicola vulgatus [22]
  MIC50: 4 µg/mL (≈ 12.4 µM)
  MIC90: 8 µg/mL (≈ 24.8 µM)
Prevotella intermedia [23]
  MIC50: 4 µg/mL (≈ 12.4 µM)
  MIC90: 8 µg/mL (≈ 24.8 µM)
Bacteroides caccae [24]
  Activity: 96%
[25]
  Activity: 97%
Prevotella buccae [26]
  MIC50: 4 µg/mL (≈ 12.4 µM)
  MIC90: 8 µg/mL (≈ 24.8 µM)
Prevotella bivia [27]
  Activity: 0%
Prevotella bivia [28]
  Activity: 100%
Phocaeicola vulgatus [29]
  Activity: 4%
Bacteroides uniformis [30]
  MIC50: 4 µg/mL (≈ 12.4 µM)
  MIC90: 8 µg/mL (≈ 24.8 µM)
Clostridium tertium [31]
  MIC50: 4 µg/mL (≈ 12.4 µM)
  MIC90: 8 µg/mL (≈ 24.8 µM)
Clostridium tertium [32]
  Activity: 0%
[33]
  Activity: 0%
Clostridium septicum [34]
  Activity: 89%
[35]
  MIC: 4 µg/mL (≈ 12.4 µM)
  MIC50: 4 µg/mL (≈ 12.4 µM)
  MIC90: 8 µg/mL (≈ 24.8 µM)
Bacteroides caccae [36]
  MIC50: 4 µg/mL (≈ 12.4 µM)
  MIC90: 8 µg/mL (≈ 24.8 µM)
[37]
  Activity: 4%
[38]
  Activity: 94%
Fusobacterium varium [39]
  MIC50: 2 µg/mL (≈ 6.19 µM)
  MIC90: 2 µg/mL (≈ 6.19 µM)
Clostridium septicum [40]
  Activity: 0%
Prevotella buccae [41]
  Activity: 100%
Finegoldia magna [42]
  Activity: 6%
Bacteroides caccae [43]
  Activity: 4%
Parvimonas micra [44]
  Activity: 94%
[45]
  Activity: 6%
Clostridium perfringens
  MIC50: 4 µg/mL (≈ 12.4 µM)
  MIC90: 8 µg/mL (≈ 24.8 µM)
Fusobacterium nucleatum [46]
  Activity: 4%
Clostridium septicum [47]
  MIC50: 4 µg/mL (≈ 12.4 µM)
  MIC90: 8 µg/mL (≈ 24.8 µM)
Fusobacterium mortiferum [48]
  Activity: 96%
[49]
  Activity: 89%
Fusobacterium nucleatum [50]
  MIC50: 2 µg/mL (≈ 6.19 µM)
  MIC90: 2 µg/mL (≈ 6.19 µM)
Bacteroides fragilis [51]
  MIC50: 4 µg/mL (≈ 12.4 µM)
  MIC90: 8 µg/mL (≈ 24.8 µM)
Clostridium tertium [52]
  Activity: 89%
Finegoldia magna [53]
  Activity: 94%
Fusobacterium mortiferum [54]
  MIC50: 2 µg/mL (≈ 6.19 µM)
  MIC90: 2 µg/mL (≈ 6.19 µM)
[55]
  MIC50: 2 µg/mL (≈ 6.19 µM)
  MIC90: 2 µg/mL (≈ 6.19 µM)
[56]
  Activity: 0%
[57]
  MIC50: 4 µg/mL (≈ 12.4 µM)
  MIC90: 8 µg/mL (≈ 24.8 µM)
[58]
  Activity: 94%
Fusobacterium mortiferum [59]
  Activity: 4%
[60]
  MIC: 1 µg/mL (≈ 3.09 µM)
  MIC50: 1 µg/mL (≈ 3.09 µM)
  MIC90: 4 µg/mL (≈ 12.4 µM)
